Data taken from patent US5175146A, “Synthetic calcitonin peptides” (Vical, Inc., priority 1990, dated 1992).
Starred links: 1 amine or outer side, 2 acyl side, 3 side chain; linkers in the order of their positions; H or OH if unused. Positions of bridges follow the written chain, without caps; N, C: chain ends. Residues, ends and D or L forms follow the SMILES beside them. Suc = O=C(CCC(=O)[*:2])[*:1]

Key:
[1] = set-up: species or system rabbits; details: rabbit, in vivo
Method: Peptides of the formula I when administered intranasally show hypocalcemic effects in animals. In order to determine their bioavailability, the effect of hypocalcemic peptides administered intranasally were compared with those administered by intravenous injection, as described below. Nasal powdery formulations containing 100 IU per 30 mg of dry powder were prepared substantially as described in U.S. Pat. No. 4,613,500. Peptides were administered intranasally at a dose of 2.8 IU/kg or intravenously at a dose of 1.75 IU/kg to rabbits. Blood samples were withdrawn before administering the peptides and 0.5, 1, 2, 4, and 6 hours after administration, and serum calcium levels determined. The ratios of areas under the curve of hypocalcemic effect (0 to 6 hours) after nasal and intravenous administration are calculated.

[2] = test system: Male rats (Sprague Dawley); assay: Hypocalcemic activity: serum Ca++ decrease in rats after subcutaneous injection; format: in vivo; details: rat serum
Method: Calcitonins lower the blood calcium of immature rats by inhibiting bone resorption. Their potency can be assessed by determining the micrograms of peptide required to reduce the serum calcium by ten percent. The results of in vivo tests of the biological activities of synthetic calcitonin peptides of the invention are shown in Example 37.
This activity was measured as follows: Male rats (Sprague Dawley) weighing approximately 100 grams were fasted overnight. Peptides according to the invention, comprising various potency-enhancing modifications, were dissolved in pH 7.4 PBS buffer at a concentration range of 0.001 microgram to about 100 microgram per ml. The rats were anesthetized with Metophane10, weighed and injected subcutaneously with the peptide solutions in a dose of from 0.001 to about 100 microgram per kilogram of body weight. […] Calcium-lowering potencies of the synthetic peptides can be calculated in International units (IU) per mg as described by the method of M. Kumar et al., J. Endocrinology 33:469-475 (1964). According to this test, 10 IU is defined as the amount of peptide necessary for lowering Ca++ concentration by 10% in 100 gram rats one hour after subcutaneous injection. Serum Ca++ levels in the rat after subcutaneous injection of various peptides are summarized below: […]

| Compound | Ratio of Nasal:i.v. Bioavailability [1] | Ca++ Decrease ([2]; dose 1 ug/kg s.c., 1 hr) | Ca++ Decrease ([2]; dose 10 ug/kg s.c., 1 hr) | Ca++ Decrease ([2]; dose 100 ug/kg s.c., 1 hr) | further results |
| --- | --- | --- | --- | --- | --- |
| CC(C)C[C@H](NC(=O)[C@H](CC(C)C)NC(=O)[C@@H]1CCCCNC(=O)CCC(=O)N[C@@H](CO)C(=O)N[C@@H](CC(N)=O)C(=O)N[C@@H](CC(C)C)C(=O)N[C@@H](CO)C(=O)N[C@@H]([C@@H](C)O)C(=O)N1)C(=O)NCC(=O)N[C@@H](CCCCN)C(=O)N[C@@H](CC(C)C)C(=O)N[C@@H](CO)C(=O)N[C@@H](CCC(N)=O)C(=O)N[C@@H](CCC(=O)O)C(=O)N[C@@H](CC(C)C)C(=O)N[C@@H](Cc1c[nH]cn1)C(=O)N[C@@H](CCCCN)C(=O)N[C@@H](CC(C)C)C(=O)N[C@@H](CCC(N)=O)C(=O)N[C@H](C(=O)N[C@@H](Cc1ccc(O)cc1)C(=O)N1CCC[C@H]1C(=O)N[C@@H](CCCNC(=N)N)C(=O)N[C@H](C(=O)N[C@@H](CC(=O)O)C(=O)N[C@H](C(=O)NCC(=O)N[C@@H](C)C(=O)NCC(=O)N[C@H](C(=O)N1CCC[C@H]1C(N)=O)[C@@H](C)O)C(C)C)[C@@H](C)O)[C@@H](C)O (SNLSTKLLGKLSQELHKLQTYPRTDVGAGTP-NH2; linker N-6 via Suc) | 14.3% |  |  |  |  |
| CC(C)C[C@H](NC(=O)[C@H](CC(C)C)NC(=O)[C@@H]1CSSC[C@H](N)C(=O)N[C@@H](CO)C(=O)N[C@@H](CC(N)=O)C(=O)N[C@@H](CC(C)C)C(=O)N[C@@H](CO)C(=O)N[C@@H]([C@@H](C)O)C(=O)N1)C(=O)NCC(=O)N[C@@H](CCCCN)C(=O)N[C@@H](CC(C)C)C(=O)N[C@@H](CO)C(=O)N[C@@H](CCC(N)=O)C(=O)N[C@@H](CCC(=O)O)C(=O)N[C@@H](CC(C)C)C(=O)N[C@@H](Cc1c[nH]cn1)C(=O)N[C@@H](CCCCN)C(=O)N[C@@H](CC(C)C)C(=O)N[C@@H](CCC(N)=O)C(=O)N[C@H](C(=O)N[C@@H](Cc1ccc(O)cc1)C(=O)N1CCC[C@H]1C(=O)N[C@@H](CCCNC(=N)N)C(=O)N[C@H](C(=O)N[C@@H](CC(=O)O)C(=O)N[C@H](C(=O)NCC(=O)N[C@@H](C)C(=O)NCC(=O)N[C@H](C(=O)N1CCC[C@H]1C(N)=O)[C@@H](C)O)C(C)C)[C@@H](C)O)[C@@H](C)O [(Leu^8)-eCT] (H-CSNLSTCLLGKLSQELHKLQTYPRTDVGAGTP-NH2; disulfide 1-7) | 28.6% |  |  |  |  |
| CC[C@H](C)[C@H](NC(=O)[C@H](C)NC(=O)[C@@H](NC(=O)[C@H](CCC(N)=O)NC(=O)[C@@H]1CCCN1C(=O)[C@H](Cc1ccccc1)NC(=O)[C@@H](NC(=O)[C@H](Cc1c[nH]cn1)NC(=O)[C@H](Cc1ccccc1)NC(=O)[C@H](CCCCN)NC(=O)[C@H](CC(N)=O)NC(=O)[C@H](CC(C)C)NC(=O)[C@H](CC(=O)O)NC(=O)[C@H](CCC(N)=O)NC(=O)[C@@H](NC(=O)[C@H](CC(C)C)NC(=O)[C@@H](NC(=O)CNC(=O)[C@H](CC(C)C)NC(=O)[C@H](CC(C)C)NC(=O)[C@@H]1CSSC[C@H](N)C(=O)NCC(=O)N[C@@H](CC(N)=O)C(=O)N[C@@H](CC(C)C)C(=O)N[C@@H](CO)C(=O)N[C@@H]([C@@H](C)O)C(=O)N1)[C@@H](C)O)[C@@H](C)O)[C@@H](C)O)[C@@H](C)O)C(=O)NCC(=O)N[C@H](C(=O)NCC(=O)N[C@@H](C)C(=O)N1CCC[C@H]1C(N)=O)C(C)C [[Leu-8,12,16]-hCT, [Leu^8,12,16]-hCT] (H-CGNLSTCLLGTLTQDLNKFHTFPQTAIGVGAP-NH2; disulfide 1-7) | 28.0% |  |  |  |  |
| [(ADA-Ser)-5,Ala-7]-cCT(5-32) |  | 0.19 mg/dL | 2.83 mg/dL |  | Ca++ Decrease ([2]; dose 1 ug/kg s.c., 3 hr): 0.14 mg/dL; Ca++ Decrease ([2]; dose 3 ug/kg s.c., 1 hr): 0.33 mg/dL; Ca++ Decrease ([2]; dose 3 ug/kg s.c., 3 hr): 0.21 mg/dL; Ca++ Decrease ([2]; dose 10 ug/kg s.c., 3 hr): 2.98 mg/dL; Ca++ Decrease ([2]; dose 10 ug/kg s.c., 6 hr): 2.10 mg/dL |
| [(Ac0AOA-SerThr)2 -Lys-7]-cCT(7-32) |  | 2.29 mg/dL | 2.45 mg/dL | 2.34 mg/dL | Ca++ Decrease ([2]; dose 0.1 ug/kg s.c., 1 hr): 0.42 mg/dL; Ca++ Decrease ([2]; dose 0.4 ug/kg s.c., 1 hr): 0.45 mg/dL |
| [(Chx-Ser)^5, Ala^7, des-^22 ]-Avian Calcitonin (5-32) [[(CHX-Ser)-5,Ala-7,des-22]-cCT(5-32)] |  | 0.32 mg/dL | 1.42 mg/dL | 1.82 mg/dL |  |
| [(Chx-Ser-Thr)2 -Lys^7, Leu^8 ]-Eel Calcitonin (7-32) [[(ChxSerThr)2 -Lys^7, Leu^8]-eCT(7-32)] | 17.4% | 2.42 mg/dL |  |  | Ca++ Decrease ([2]; dose 0.01 ug/kg s.c., 1 hr): 0.13 mg/dL; Ca++ Decrease ([2]; dose 0.03 ug/kg s.c., 1 hr): 0.24 mg/dL; Ca++ Decrease ([2]; dose 0.1 ug/kg s.c., 1 hr): 0.39 mg/dL; Ca++ Decrease ([2]; dose 0.32 ug/kg s.c., 1 hr): 1.09 mg/dL |
| [(D-Ala-Ada-Ser)^5, Ala^7, des-^22 ]-Avian Calcitonin (5-32) |  | 0.32 mg/dL | 1.42 mg/dL | 1.82 mg/dL |  |
| [(LeuCys)^1, Leu^8 ]-eCT | 37.5% | 3.35 mg/dL |  |  | Ca++ Decrease ([2]; dose 0.03 ug/kg s.c., 1 hr): 1.24 mg/dL |
| [(Oleyl-Ser)-5,Ala-7]-cCT(5-32) |  | 0.47 mg/dL | 0.60 mg/dL | 1.15 mg/dL |  |
| [(SerThr)2 -Lys-7]-cCT(7-32) |  | 2.09 mg/dL | 2.75 mg/dL | 2.75 mg/dL |  |
